Laboratory results published in patent publication US20050182044A1, “Combinatorial therapy with an acetylcholinesterase inhibitor and (3aR)-1,3a,8-trimethyl-1,2,3,3a,8,8a-hexahydropyrrolo[2,3,-b]indol-5-yl phenylcarbamate” (priority 2004, published 2005).
Entries after “also recorded” stand apart in the source; their conditions may differ. Read-outs that look alike come from different tables or passages of the source.

Key:
[1] = test system: Aβ; experiment: Aβ levels in neuroblastoma cell culture (ELISA); type: cell-based, human; conditions: for secreted levels of Aβ: SK-N-SH cells, 5 or 50 μM, up to 16 hours, vs control, no cellular toxicity (LDH), FIG. 4/5
Procedure: (§1) SK—N—SH neuroblastoma cells were cultured on 60 mm dishes at a concentration of 3×10^6 cells, and SH—SY-5Y neuroblastoma cells were plated in 100 mm dishes at a concentration of 3×10^5 cells. The cells were allowed to grow in complete media (10% FBS, 2 mM glutamine in DMEM) for 3 to 4 days until they reached 70% confluence.
Total Aβ Assay: Total Aβ peptide levels in SH—SY-5Y and SK—N—SH cultured samples were assayed by a sensitive ELISA assay (Suzuki et al., (1994) An Increased Percentage of Long Amyloid Beta Protein Secreted by Familial Amyloid Beta Protein Precursor (beta APP717) Mutants, Science 264:1336-1340). For total Aβ peptide measurements, a sandwich immunoassay with rabbit polyclonal antibody to residues 1-40 of Aβ or a monoclonal antibody to residues 17-25 of Aβ as a capture antibody for all species of Aβ peptide, Aβ1-40 and Aβ1-42, was used, and the values were expressed as the mean of six independent assays.

[2] = i.p. administration to rodents, cholinergic over-stimulation symptoms
Source text: This is a classical central (i.e., brain) cholinergic over-stimulation (overdrive) effect.

[3] = test system: β-APP; experiment: β-APP production on coadministration of (+)-phenserine with an AChEI (Example III); type: cell-based
Source text: The compounds may be tested by the procedure utilized in Example II.

[4] = molecular target: T1, acetylcholinesterase (AChE) (Homo sapiens, UniProt P22303); conditions: compared with the negative enantiomer; Pei, Greig et al. (1995); cited from earlier work
T1 construct: host or cells: human erythrocytes
T1 sequence (P22303 32-617 isoform P22303-2 limits assumed): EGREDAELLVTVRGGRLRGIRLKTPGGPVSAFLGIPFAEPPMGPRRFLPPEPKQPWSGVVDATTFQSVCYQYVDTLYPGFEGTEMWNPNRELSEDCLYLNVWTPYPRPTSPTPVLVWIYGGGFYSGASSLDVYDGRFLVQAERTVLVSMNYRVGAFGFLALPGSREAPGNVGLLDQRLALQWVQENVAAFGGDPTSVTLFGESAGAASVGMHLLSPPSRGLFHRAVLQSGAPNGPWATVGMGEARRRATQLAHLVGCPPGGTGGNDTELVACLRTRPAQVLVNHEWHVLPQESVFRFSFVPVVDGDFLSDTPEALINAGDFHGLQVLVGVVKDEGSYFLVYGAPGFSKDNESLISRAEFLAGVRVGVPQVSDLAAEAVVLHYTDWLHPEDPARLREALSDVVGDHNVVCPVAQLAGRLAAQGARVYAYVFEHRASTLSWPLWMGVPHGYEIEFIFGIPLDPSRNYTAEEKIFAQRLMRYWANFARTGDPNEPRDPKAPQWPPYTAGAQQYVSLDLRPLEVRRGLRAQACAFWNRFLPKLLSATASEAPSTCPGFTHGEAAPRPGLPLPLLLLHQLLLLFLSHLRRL

[5] = Randomized, double-blind, placebo-controlled 12-week study in mild to moderate Alzheimer's disease; type: in vivo, human; conditions: oral, 12 weeks
[6] = test system: β-APP; experiment: β-APP levels in neuroblastoma cell culture (Western blot, mAb 22C11); type: cell-based, human; conditions: for β-APP levels, intracellular and extracellular: SK-N-SH cells, 5 or 50 μM, up to 16 hours, vs control, no cellular toxicity (LDH), FIG. 4/5; for intracellular β-APP level: donepezil treatment, FIG. 2
Procedure: Acad. Sci. USA 98 (13):7605-7610. The methodology of Shaw et al. for carrying out these tests is summarized as follows:
as §1
Lysate preparation: At each time point, the spent medium was collected and stored at −70 C for later analysis of secretory β-APP levels. Cell lysates were prepared as reported previously (Lahiri et al. (1997) Effects of Cholinesterase Inhibitors on the Secretion of Beta-Amyloid Precursor Protein in Cell Cultures, Ann. N.Y Acad. Sci. 826:416-421; and Lahiri et al. (1998) The Secretion of Amyloid Beta-Peptides is Inhibited in the Tacrine-Treated Human Neuroblastoma Cells, Mol. Brain Res. 62:131-140). Protein levels of the supernatant were analyzed by the Bradford protein assay (BioRad, Mellville, N.Y.).
Western Blot: Fifteen μg of protein from each sample was loaded onto a 10% NuPAGE Bis-Tris gel in 1× NuPAGE MOPS SDS running buffer (NOVEX, San Diego, Calif.) and the proteins separated at 200 V for 45 minutes. The gels were then transferred onto nitrocellulose at 25 V for 1.5 hours. Non-specific binding was blocked, and each blot was probed for 2 hours with either 22C11 anti-β-APP N-terminal antibody (2.5 μg/mL, Boehringer Mannheim, Indianapolis, Ind.) or anti-activated ERK antibody (25 ng/mL, Promega, Madison, Wis.). Anti-mouse IgG- or anti-rabbit IgG, conjugated to horse radish peroxidase, were used as secondary antibodies. Equivalent loading of samples was determined by Ponceau S staining (Sigma, St. Louis, Mo.). Densimetric quantification of the chemiluminescence of blots was undertaken by using a […] and NIH-IMAGE (version 4.1).

[7] = molecular target: T1, acetylcholinesterase (AChE); experiment: IC50 for AChE inhibition, phenserine enantiomers; type: biochemical
Source text: (§2) For example, the pharmacological activity of each compound may be expressed as the IC50, which is defined as the concentration (e.g., in nanomoles) required to inhibit 50% of the enzyme activity of ACHE or produce a 50% reduction in β-APP or Aβ. The AChE inhibition IC50 values may be determined by measuring the enzyme activity at each concentration and expressed as a percentage of the activity determined in the absence of each compound. This then is transformed into a logit format, where logit=In (% activity/[100−% activity]), and was plotted as a finction of the log concentration of the compound (Id.). IC50 values (i.e., logit=In (50/[100−50 =0) were determined only from correlation coefficients (r^2) of […] and when more than 50% inhibition was achieved from duplicate samples.

[8] = test system: Aβ; experiment: Preclinical studies, Aβ levels in nerve cells; type: cell-based, rat; conditions: for reduction of Aβ levels in nerve cells: versus controls
[9] = test system: β-APP; experiment: CSF levels of β-APP in naive and forebrain-lesioned rats; type: in vivo, rat; conditions: for CSF levels of β-APP: vs untreated controls, FIG. 6
Procedure: Lesions were induced with […] N-methyl-D-aspartic acid (50 nMol) (64-68).

[10] = molecular target: T2, BChE (Homo sapiens, UniProt P06276); experiment: BChE inhibition IC50 (RBC/plasma and brain); type: biochemical
T2 construct: (−)-Phenserine (RBC/plasma); from tissue; host or cells: plasma (RBC/plasma rows); brain (Brain rows)
T2 sequence (P06276 29-602, species assumed): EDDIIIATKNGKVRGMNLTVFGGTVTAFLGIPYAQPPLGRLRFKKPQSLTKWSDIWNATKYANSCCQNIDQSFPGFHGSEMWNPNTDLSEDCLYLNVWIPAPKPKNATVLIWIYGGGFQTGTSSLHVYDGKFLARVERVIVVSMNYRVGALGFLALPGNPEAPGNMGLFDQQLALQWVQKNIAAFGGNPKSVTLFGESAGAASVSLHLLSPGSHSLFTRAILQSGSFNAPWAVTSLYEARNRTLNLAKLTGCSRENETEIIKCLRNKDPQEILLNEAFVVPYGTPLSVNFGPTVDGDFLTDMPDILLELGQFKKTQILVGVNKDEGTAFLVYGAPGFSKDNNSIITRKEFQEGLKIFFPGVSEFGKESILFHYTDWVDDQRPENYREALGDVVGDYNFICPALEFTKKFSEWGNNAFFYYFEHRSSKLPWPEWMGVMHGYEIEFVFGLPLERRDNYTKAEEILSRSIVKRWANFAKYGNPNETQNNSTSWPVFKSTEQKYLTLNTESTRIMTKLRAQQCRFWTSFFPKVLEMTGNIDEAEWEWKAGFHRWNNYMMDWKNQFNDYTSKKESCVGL

[11] = test system: β-APP; experiment: Preclinical studies, β-APP levels; type: cell-based, rat; conditions: versus controls
[12] = molecular target: T3, AChE (Homo sapiens, UniProt P22303); experiment: biochemical; conditions: IC50 Value AChE, Brain
T3 construct: other: Brain
T3 sequence (P22303 whole entry): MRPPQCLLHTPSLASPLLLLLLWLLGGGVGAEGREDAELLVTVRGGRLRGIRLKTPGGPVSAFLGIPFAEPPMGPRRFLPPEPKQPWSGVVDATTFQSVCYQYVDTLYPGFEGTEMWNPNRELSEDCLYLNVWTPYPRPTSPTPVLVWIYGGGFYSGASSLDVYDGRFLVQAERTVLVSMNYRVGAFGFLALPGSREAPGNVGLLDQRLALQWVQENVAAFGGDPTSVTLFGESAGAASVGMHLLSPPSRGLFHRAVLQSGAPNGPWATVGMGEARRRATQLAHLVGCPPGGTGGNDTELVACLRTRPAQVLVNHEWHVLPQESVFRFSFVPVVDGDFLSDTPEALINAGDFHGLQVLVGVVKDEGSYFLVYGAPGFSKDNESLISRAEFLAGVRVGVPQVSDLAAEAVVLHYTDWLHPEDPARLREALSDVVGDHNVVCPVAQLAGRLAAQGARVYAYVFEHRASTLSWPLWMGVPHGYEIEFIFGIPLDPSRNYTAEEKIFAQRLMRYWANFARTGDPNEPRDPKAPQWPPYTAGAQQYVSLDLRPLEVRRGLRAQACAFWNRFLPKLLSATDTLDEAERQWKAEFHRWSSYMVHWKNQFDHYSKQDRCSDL
Source text: as §2

[13] = molecular target: T4, AChE (Rattus norvegicus, UniProt P37136); experiment: In vivo AChE inhibition in plasma after i.v. administration; design: species or system Fischer-344 rats; conditions: iv, 1 mg/kg i.v.
T4 construct: Samples of plasma were removed to measure untreated levels of AChE activity; from tissue; host or cells: plasma of Fischer-344 rats
T4 sequence (P37136 32-614): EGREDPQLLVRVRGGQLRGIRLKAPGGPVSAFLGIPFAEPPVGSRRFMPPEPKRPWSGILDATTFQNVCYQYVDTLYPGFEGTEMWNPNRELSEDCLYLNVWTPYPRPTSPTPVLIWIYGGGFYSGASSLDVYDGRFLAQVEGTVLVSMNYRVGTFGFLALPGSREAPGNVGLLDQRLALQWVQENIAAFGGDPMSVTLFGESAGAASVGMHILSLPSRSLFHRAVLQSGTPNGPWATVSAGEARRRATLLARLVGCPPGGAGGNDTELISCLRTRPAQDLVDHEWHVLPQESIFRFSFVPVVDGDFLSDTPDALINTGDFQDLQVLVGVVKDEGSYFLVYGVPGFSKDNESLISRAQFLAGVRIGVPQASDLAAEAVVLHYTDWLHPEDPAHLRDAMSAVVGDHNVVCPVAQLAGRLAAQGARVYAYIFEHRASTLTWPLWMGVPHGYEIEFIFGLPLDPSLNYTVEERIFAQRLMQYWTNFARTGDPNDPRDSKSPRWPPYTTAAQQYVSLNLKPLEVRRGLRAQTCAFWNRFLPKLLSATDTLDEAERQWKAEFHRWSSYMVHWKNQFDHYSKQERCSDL
Procedure: In this experiment, three-month-old male Fischer-344 rats were anesthetized with halothane. PE 50 catheters, filled with heparinized isotonic saline, were tied into their right femoral artery and vein. Animals then were restrained with a plaster cast that enabled them to move their head and forequarters only and were allowed to recover from anesthesia in a temperature-controlled enclosure. Samples of plasma were removed to measure untreated levels of AChE activity. At 90 minutes after surgery, hexamethonium bromide (5 mg/kg) was administered intraperitoneally, followed by subcutaneous injection of atropine methyl bromide (4 mg/kg) 10 minutes later. […] Both were formulated in a manner consistent for intravenous bolus injection. Plasma samples were removed and immediately frozen at −70° C., just prior to intravenous administration of the inhibitors and at times between 2 minutes and 8 hours.

[14] = test system: β-APP; experiment: β-APP levels in adult rats after three weeks of daily administration; type: in vivo, rat; conditions: daily for three weeks, metrifonate 80 mg/kg, tacrine 3 mg/kg, data not shown
Procedure: The levels of β-APP were measured by 22C11 (epitope APP 66-81).

[15] = extracellular β-APP levels, read-out: IC50 for β-APP secretion
[16] = intracellular β-APP levels, read-out: IC50 for intracellular β-APP
[17] = human neuroblastoma cells, 2 μM, 10 μM and 50 μM (text: 50 μM), FIG. 3

For CN1CC[C@]2(C)c3cc(OC(=O)Nc4ccccc4)ccc3N(C)C12 (single isomer, unassigned; (+)) [(+)-phenserine], the “secreted levels of Aβ” value [1] was “significantly lowered”, the “secreted levels of Aβ” value ([1]; listed as (+)-Phenserine) was “capable of reducing the β-APP and Aβ protein levels” and the observed symptoms ([2]; 20 mg/kg i.p.) was “entirely without symptoms”. For the same compound, the “production of β-APP” value ([3]; coadministered with donepezil) was “reduce the production of β-APP”, the “production of β-APP” value ([3]; coadministered with eptastigmine) was “reduce the production of β-APP” and the “production of β-APP” value ([3]; coadministered with galantamine) was “reduce the production of β-APP”. The “production of β-APP” value ([3]; coadministered with huperzine A) was “reduce the production of β-APP”, the “production of β-APP” value ([3]; coadministered with rivastigmine) was “reduce the production of β-APP” and the “activity as an inhibitor of human acetylcholinesterase” value [4] was “far less active”. For the same compound, the “efficacy test level (NPI, CGIC, ADAS-cog, MMSE, CANTAB, ADCS-ADL) vs First Level” value ([5]; 50 mg bid with 5 mg bid (−)-phenserine) was “maintain a level at least as great as the First Level”, the “efficacy test level (NPI, CGIC, ADAS-cog, MMSE, CANTAB, ADCS-ADL) vs First Level” value ([5]; 50 mg bid with 6-12 mg per day rivastigmine) was “maintain a level at least as great as the First Level” and the “β-APP levels, intracellular and extracellular” value [6] was “significantly lowered”. For the same compound, the “β-APP levels, intracellular and extracellular” value ([6]; listed as (+)-Phenserine) was “capable of reducing the β-APP and Aβ protein levels”, the IC50 [6, 15] was ~670 nM and the IC50 [6, 16] was ~1100 nM. For the same compound, the IC50 [7] was > 25000 nM and the Aβ levels ([8]; combined with (−)-phenserine) was “further reduced”.

For CN1CC[C@@]2(C)c3cc(OC(=O)Nc4ccccc4)ccc3N(C)C12 (single isomer, unassigned; (-)) [(−)-phenserine], the “extracellular β-APP in the CSF, dose dependence of the decrease” value ([9]; adult rats, up to very high doses) was “reaches a plateau that is not further decreased even at very high doses”, the “CSF levels of β-APP” value ([9]; naive rats, 2.5 mg/kg, 2.5 mg/kg) was “lowered β-APP levels; also recorded: reduce β-APP levels” and the “CSF levels of β-APP” value ([9]; rats with cholinergic forebrain (nucleus basalis of Meynert) lesions) was “lowered β-APP levels”. The “secreted levels of Aβ” value [1] was “significantly lowered; also recorded: reduces β-APP and Aβ levels in a concentration-dependent manner; also recorded: substantially reduced from that of the controls especially at 16 hours”, the “duration of fine tremor” value ([2]; 5 mg/kg i.p.) was “about 1 hour” and the observed symptoms ([2]; 5 mg/kg i.p.) was “a fine tremor was observed”. The observed symptoms ([2]; 7.5 mg/kg i.p.) was “Tremor, together with symptoms of peripheral over-stimulation (specifically, lacrimation and salivation)”, the observed symptoms ([2]; 20 mg/kg i.p.) was “incapacitated by severe tremor and peripheral side effects” and the “animals killed when moribund” value ([2]; 20 mg/kg i.p., of 5 treated animals) was 2. For the same compound, the IC50 ([10]; Brain) was 2500 ± 1100 nM, the IC50 ([10]; RBC/plasma) was 1560 ± 270 nM and the “levels of β-APP” value [11] was “similarly reduced”. The IC50 [12] was 36 ± 3 nM, the inhibition at 1 mg/kg ([13]; at 5 minutes, read-out: maximum AChE inhibition) was 73.5% and the inhibition at 1 mg/kg ([13]; at 8 hours, read-out: AChE inhibition) was 43%. For the same compound, the “β-APP levels, intracellular and extracellular” value [6] was “significantly lowered; also recorded: reduces β-APP and Aβ levels in a concentration-dependent manner; also recorded: decreased the β-APP levels”, the IC50 [6, 15] was ~670 nM and the IC50 ([6]; intracellular β-APP levels, read-out: IC50 for inhibition of β-APP, intracellular) was ~1100 nM. For the same compound, the IC50 [6, 16] was ~1100 nM, the “reduction of Aβ levels in nerve cells” value ([8]; after 8 hours) was 14% and the “reduction of Aβ levels in nerve cells” value ([8]; after 16 hours) was 31%.

For COP(=O)(OC)C(O)C(Cl)(Cl)Cl (centres unmarked) [Metrifonate], the “secreted β-APP levels” value [14] was “did not alter”.

For Nc1c2c(nc3ccccc13)CCCC2 [Tacrine], the “secreted β-APP levels” value [14] was “did not alter”.

With COc1cc2c(cc1OC)C(=O)C(CC1CCN(Cc3ccccc3)CC1)C2 (centres unmarked) [donepezil, reference compound] the “intracellular β-APP level” value [6] was “decreased intracellular levels” and the “intracellular β-APP level” value ([6]; listed as Donepezil) was “reduces intracellular β-APP”.

For CCN(C)C(=O)Oc1cccc([C@H](C)N(C)C)c1 [rivastigmine, reference compound], the Aβ peptide levels [1, 17] was “No statistically significant change; also recorded: without a statistically significant change” and the “secreted β-APP” value [6, 17] was “elevated secretion of β-APP; also recorded: elevates the levels of secreted β-APP”.
